Experimental data from PubChem BioAssay AID330 (DTP/NCI, 2004).
“And” between values parts separate entries of the source, which are not always exact repeats. Equal entries are not always repeated. Inconclusive results and toxic doses are left out. Rule for the calls: active = survival T/C of 150% or more; inactive = T/C below 125% in these data.

System: P388 leukemia ip, CD2F1 mice, survival T/C
Assay: NCI In Vivo Anticancer Drug Screen. Data for tumor model P388 Leukemia (intraperitoneal) in CD2F1 (CDF1) mice
Conditions: endpoint: median survival time, higher = longer survival
In short: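 Mice carrying the transplanted tumor received test compound or vehicle. Survival was recorded in each group, and the value is the treated-group measurement divided by that of the vehicle-treated control group.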

[1] = dose: 50.0 mg/kg/injection, schedule: Q01DX005 (ip), vehicle: saline with Tween-80
[2] = dose: 100.0 mg/kg/injection, schedule: Q01DX005 (ip), vehicle: saline with Tween-80
[3] = dose: 200.0 mg/kg/injection, schedule: Q01DX005 (ip), vehicle: saline with Tween-80
[4] = dose: 60.0 mg/kg/injection, schedule: Q01DX005 (ip), vehicle: saline with Tween-80
[5] = dose: 120.0 mg/kg/injection, schedule: Q01DX005 (ip), vehicle: saline with Tween-80
[6] = dose: 240.0 mg/kg/injection, schedule: Q01DX005 (ip), vehicle: saline with Tween-80
[7] = dose: 12.5 mg/kg/injection, schedule: Q01DX005 (ip), vehicle: saline with Tween-80
[8] = dose: 25.0 mg/kg/injection, schedule: Q01DX005 (ip), vehicle: saline with Tween-80
[9] = dose: 50.0 mg/kg/injection, schedule: Q01DX009 (ip), vehicle: saline
[10] = dose: 100.0 mg/kg/injection, schedule: Q01DX009 (ip), vehicle: saline
[11] = dose: 100.0 mg/kg/injection, schedule: Q01DX009 (ip), vehicle: saline with Tween-80
[12] = dose: 25.0 mg/kg/injection, schedule: Q01DX005 (ip), vehicle: Klucel (hydroxypropylcellulose) (HPC)
[13] = dose: 50.0 mg/kg/injection, schedule: Q01DX005 (ip), vehicle: Klucel (hydroxypropylcellulose) (HPC)
[14] = dose: 100.0 mg/kg/injection, schedule: Q01DX005 (ip), vehicle: Klucel (hydroxypropylcellulose) (HPC)
[15] = dose: 200.0 mg/kg/injection, schedule: Q01DX005 (ip), vehicle: Klucel (hydroxypropylcellulose) (HPC)
[16] = dose: 25.0 mg/kg/injection, schedule: Q01DX009 (ip), vehicle: saline with Tween-80
[17] = dose: 50.0 mg/kg/injection, schedule: Q01DX009 (ip), vehicle: saline with Tween-80
[18] = dose: 200.0 mg/kg/injection, schedule: Q01DX009 (ip), vehicle: saline

Measured: T/C

NC(=S)N/N=C\C(CC(O)C(O)CO)=N\NC(N)=S (configuration not stated)
inactive: [1] 89 % of control | [2] 95 % of control | [3] 98 % of control

CCC1=C(C)CCN(C)C1Cc1ccc(OC)cc1 (configuration not stated)
inactive: dose: 15.0 mg/kg/injection, schedule: Q01DX005 (ip), vehicle: Klucel (hydroxypropylcellulose) (HPC) 106 % of control | dose: 30.0 mg/kg/injection, schedule: Q01DX005 (ip), vehicle: Klucel (hydroxypropylcellulose) (HPC) 98 % of control | dose: 60.0 mg/kg/injection, schedule: Q01DX005 (ip), vehicle: Klucel (hydroxypropylcellulose) (HPC) 100 % of control and 102 % of control

CCOC(=O)C(SC(S(=O)(=O)c1ccccc1)S(=O)(=O)c1ccccc1)C(=O)OCC
inactive: dose: 50.0 mg/kg/injection, schedule: Q01DX009 (ip), vehicle: Klucel (hydroxypropylcellulose) (HPC) 98 % of control | dose: 100.0 mg/kg/injection, schedule: Q01DX009 (ip), vehicle: Klucel (hydroxypropylcellulose) (HPC) 90 % of control | dose: 200.0 mg/kg/injection, schedule: Q01DX009 (ip), vehicle: Klucel (hydroxypropylcellulose) (HPC) 90 % of control

Cc1nn(C(=S)S)c(C)c1N=Nc1ccc(Cl)cc1Cl
inactive: [1] 100 % of control | [2] 96 % of control | [3] 102 % of control

CC1=C(CO)C(=O)OC(C(C)C2CCC3C4CC5OC56C(O)C(N5CCCCC5)CC(=O)C6(C)C4CCC23C)C1 (configuration not stated)
inactive: dose: 7.0 mg/kg/injection, schedule: Q01DX005 (ip), vehicle: Klucel (hydroxypropylcellulose) (HPC) 101 % of control | dose: 14.0 mg/kg/injection, schedule: Q01DX005 (ip), vehicle: Klucel (hydroxypropylcellulose) (HPC) 94 % of control | dose: 28.0 mg/kg/injection, schedule: Q01DX005 (ip), vehicle: Klucel (hydroxypropylcellulose) (HPC) 96 % of control | dose: 56.0 mg/kg/injection, schedule: Q01DX005 (ip), vehicle: Klucel (hydroxypropylcellulose) (HPC) 101 % of control | dose: 112.0 mg/kg/injection, schedule: Q01DX005 (ip), vehicle: Klucel (hydroxypropylcellulose) (HPC) 97 % of control

O=C1NN2CCN=C2c2ccccc21
inactive: [4] 100 % of control | [5] 104 % of control | [6] 103 % of control

O=C(O)CSC(=S)CCCCCCCCCCC(=S)SCC(=O)O
inactive: [7] 111 % of control | [8] 109 % of control | [1] 116 % of control and 118 % of control

O=c1[nH]c(=O)c2nc3c([N+](=O)[O-])ccc(-c4cccc5ccccc45)c3nc2[nH]1
inactive: [9] 109 % of control | [10] 100 % of control

COc1ccc(C=Nc2ccccc2)cc1
inactive: [11] 100 % of control | dose: 200.0 mg/kg/injection, schedule: Q01DX009 (ip), vehicle: saline with Tween-80 118 % of control | dose: 400.0 mg/kg/injection, schedule: Q01DX009 (ip), vehicle: saline with Tween-80 118 % of control

CSc1cc(C)c(C#N)c(SC)n1
inactive: [1] 92 % of control | [2] 89 % of control | [3] 99 % of control

O=C1/C(=c2\c3ccccc3n3c(=O)c4ccccc4nc23)Nc2ccccc21
inactive: [12] 92 % of control | [13] 91 % of control | [14] 91 % of control

Nc1nnc(-c2ccc(Cl)cc2)o1
inactive: [4] 100 % of control | [5] 110 % of control | [6] 103 % of control

CC1(C)Nc2cc3c(cc2-n2cccc21)oc1ccccc13
inactive: dose: 12.5 mg/kg/injection, schedule: Q01DX005 (ip), vehicle: Klucel (hydroxypropylcellulose) (HPC) 111 % of control | [12] 99 % of control | dose: 50.0 mg/kg/injection, schedule: Q01DX005 (ip), vehicle: DMSO 100 % of control | [13] 105 % of control | dose: 100.0 mg/kg/injection, schedule: Q01DX005 (ip), vehicle: DMSO 95 % of control | [14] 101 % of control | dose: 200.0 mg/kg/injection, schedule: Q01DX005 (ip), vehicle: DMSO 96 % of control | [15] 111 % of control | dose: 400.0 mg/kg/injection, schedule: Q01DX005 (ip), vehicle: DMSO 100 % of control | dose: 800.0 mg/kg/injection, schedule: Q01DX005 (ip), vehicle: DMSO 98 % of control

Cc1cccc(N2C(=O)CSC2=S)c1
inactive: dose: 12.5 mg/kg/injection, schedule: Q01DX009 (ip), vehicle: saline with Tween-80 109 % of control | [16] 100 % of control | [17] 103 % of control

O=C1CCCCC1O (configuration not stated)
inactive: [9] 104 % of control and 106 % of control | [10] 100 % of control and 103 % of control | [18] 110 % of control and 97 % of control | dose: 400.0 mg/kg/injection, schedule: Q01DX009 (ip), vehicle: saline 88 % of control and 95 % of control

N#Cc1sc(SCC(=O)O)c(-[n+]2ccccc2)c1N
inactive: dose: 25.0 mg/kg/injection, schedule: Q04DX002 (ip), vehicle: saline with Tween-80 95 % of control | dose: 50.0 mg/kg/injection, schedule: Q04DX002 (ip), vehicle: saline with Tween-80 104 % of control | dose: 100.0 mg/kg/injection, schedule: Q04DX002 (ip), vehicle: saline with Tween-80 99 % of control

N#CSc1ccc2nc(NC(NC(=O)c3ccccc3)C(Cl)(Cl)Cl)sc2c1 (configuration not stated)
inactive: dose: 6.25 mg/kg/injection, schedule: Q01DX009 (ip), vehicle: Klucel (hydroxypropylcellulose) (HPC) 102 % of control | dose: 12.5 mg/kg/injection, schedule: Q01DX009 (ip), vehicle: Klucel (hydroxypropylcellulose) (HPC) 108 % of control | dose: 25.0 mg/kg/injection, schedule: Q01DX009 (ip), vehicle: Klucel (hydroxypropylcellulose) (HPC) 101 % of control

Nc1nnc(SCCCCCCCCCCSc2nnc(N)s2)s1
inactive: [13] 95 % of control | [14] 91 % of control | [15] 89 % of control

COc1cc2c(cc1OC)C[N+]1(C)CCc3cc(OC)c(OC)cc3C1C2 (configuration not stated)
inactive: dose: 10.0 mg/kg/injection, schedule: Q01DX009 (ip), vehicle: saline 111 % of control | dose: 20.0 mg/kg/injection, schedule: Q01DX009 (ip), vehicle: saline 111 % of control

CCCCCN(CCCCC)c1nsc(Cl)n1
inactive: [16] 108 % of control | [17] 103 % of control | [11] 100 % of control

Clc1cc(Cl)cc(N=Cc2cccs2)c1
inactive: [9] 100 % of control | [10] 100 % of control | [18] 98 % of control

CCCCCCCCCCCCCCCCCCCCCCCCC(O)C(=O)O (configuration not stated) (tested in a mixture with another compound)
inactive: [7] 106 % of control | [8] 93 % of control | [1] 87 % of control and 89 % of control | [3] 87 % of control

CC(=O)Nc1ccc2c(c1)nc(-c1ccccn1)n2CCc1ccccn1
inactive: [12] 103 % of control | [13] 102 % of control | [14] 102 % of control | [15] 102 % of control

O=C1C(c2ccccc2)=S=C2C=Cc3ccccc3N12
inactive: dose: 100.0 mg/kg/injection, schedule: Q01DX001 (ip), vehicle: saline with Tween-80 109 % of control | dose: 200.0 mg/kg/injection, schedule: Q01DX001 (ip), vehicle: saline with Tween-80 111 % of control | dose: 400.0 mg/kg/injection, schedule: Q01DX001 (ip), vehicle: saline with Tween-80 116 % of control
